Measured values as given in patent publication US20040166060A1, “Liposomal encapsulation of alpha particle emittors and uses thereof” (Sloan Kettering Institute for Cancer Research, priority 2000, published 2004).

Columns and labels:
[1] = Biodistribution of In-111-DTPA and large liposomes; details: in vivo
Text: FIGS. 10A-10C depict the biodistribution of ^111In-DTPA only (FIG. 10A) zwitterionic liposomes (FIG. 10B), ^111In-DTPA cationic liposomes (FIG. 10C).
Over time the percentage per gram of tissue tested of the original amount of In-111 found in the spleen and liver increases while that in blood and other tissues such as heart, lungs, stomach, intestines, kidneys, bone, and muscle remain constant or decrease. […] Preinjection with empty large liposomes to saturate the reticuloendothelial organs will reduce non-specific radionuclide uptake by the spleen and liver.

myeloid leukemia = details: first injection of an alpha-particle emitter to humans; cited from earlier work

**Q.** For `O=C([O-])CN(CCN(CC(=O)[O-])CC(=O)[O-])CCN(CC(=O)[O-])CC(=O)[O-].[111In+3].[H+].[H+]` [DTPA-chelated In-111], which “tissue localization of In-111” value [1] is on record?
**A.** localize to the kidneys more than to other tissues

**Q.** With “HuM195: 213Bi conjugated to the anti-CD33 antibody HuM195” as the molecule, how does the trial outcome (myeloid leukemia) read?
**A.** feasibility and anti-cancer activity with minimal toxicity
